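Step 1: Grow cells in 96-well plates. Step 2: Expose to compound for 48 hours at 5 concentrations. Step 3: Interpolate endpoints linearly; if unreached, use highest concentration. At the GI50, growth is halved. TGI denotes the concentration required for complete inhibition of growth.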
Assays:
Experiment in all cases: inhibition of tumour cell growth, NCI panel, 48 h
[1] = tested on: OVCAR-5 ovarian
[2] = tested on: SF-295 CNS
[3] = tested on: MALME-3M melanoma
[4] = tested on: T-47D breast
[5] = tested on: ACHN renal
[6] = tested on: HT29 colon
[7] = tested on: HCT-116 colon
[8] = tested on: HCT-15 colon
[9] = tested on: PC-3 prostate
[10] = tested on: U251 CNS

| SMILES | GI50 [1] | TGI [1] | GI50 [2] | TGI [2] | GI50 [3] | TGI [3] | GI50 [4] | TGI [4] | GI50 [5] | TGI [5] | GI50 [6] | TGI [6] | GI50 [7] | TGI [7] | GI50 [8] | TGI [8] | GI50 [9] | TGI [9] | GI50 [10] | TGI [10] |
| --- | --- | --- | --- | --- | --- | --- | --- | --- | --- | --- | --- | --- | --- | --- | --- | --- | --- | --- | --- | --- |
| CCC[C@H](N[C@@H]1CCc2cc(F)cc(F)c2C1)C(=O)Nc1cn(C(C)(C)CNCC(C)(C)C)cn1 | 21.1 µM | > 77.7 µM | 15.4 µM | 42.5 µM | 13.4 µM | 28.2 µM | 16 µM | > 65.4 µM | 22.7 µM | > 96.7 µM | 11.7 µM | 30 µM | 5.31 µM | 20.2 µM | 15.7 µM | 75.2 µM | 7.63 µM | 79.2 µM | 15.7 µM | 58.7 µM |
| O=C(O)C1C2CC3C(OC(=O)C31)C2Br (stereo not given) |  | > 100 µM |  | > 100 µM |  | > 100 µM |  | > 100 µM |  | > 100 µM |  | > 100 µM |  | > 100 µM |  | > 100 µM |  | > 100 µM |  | > 100 µM |
| CC(C)=CCc1c(O)cc(/C=C/c2cc(O)c3c(c2)C[C@@H]2C(C)(C)[C@H](O)[C@H](O)C[C@@]2(C)O3)cc1O | 1.36 µM | > 7.96 µM | < 0.001 µM | 0.00118 µM | 1.21 µM | 6.51 µM | 1.85 µM | > 9.39 µM | 0.526 µM | > 8.74 µM | 0.373 µM | 3.54 µM | 0.00519 µM | > 10 µM | 1.28 µM | > 10 µM | 0.345 µM | > 10 µM | 0.0533 µM | > 5.28 µM |
| CCOC(=O)CC1(O)C=CC(=O)C=C1 | 3.18 µg/mL | 5.42 µg/mL | 2.55 µg/mL | 5.07 µg/mL | 0.914 µg/mL | 2.89 µg/mL | 0.667 µg/mL | 2.31 µg/mL | 2.43 µg/mL | 4.6 µg/mL | 2.17 µg/mL | 4.46 µg/mL | 2.47 µg/mL | 5.44 µg/mL | 0.313 µg/mL | 0.596 µg/mL | 0.348 µg/mL | 0.921 µg/mL | 0.477 µg/mL | 1.45 µg/mL |
| CS(=O)(=O)CCNCc1ccc(-c2ccc3ncnc(Nc4ccc(OCc5cccc(C(F)(F)F)c5)cc4)c3c2)o1 | 9.03 µM | 24.3 µM | 5.08 µM | 11.3 µM | 5.28 µM | 10.5 µM | 7.6 µM | > 23 µM | 7.38 µM | > 25 µM | 4.22 µM | 8.32 µM | 5.07 µM | 10 µM | 4.71 µM | 10.6 µM | 5.63 µM | 19.9 µM | 4.22 µM | 9.51 µM |
| Brc1ccc([I+]c2ccc(Br)cc2)cc1 | 2.58 µM | 7.9 µM | 1.7 µM | 5.85 µM | 1.38 µM | 12.3 µM | 1.78 µM | 11 µM | 4.47 µM | 21 µM | 0.535 µM | 3.16 µM | 0.643 µM | 11.5 µM | 8.3 µM | 42.7 µM | 1.25 µM | 3.8 µM | 1.32 µM | 2.65 µM |

— PubChem BioAssay (NCI)
